Ends that are not written are not given here.
Columns and labels:
[1] = tested on: Chronic Myocardial Infarction Model; assay: Echocardiography in chronic myocardial infarction model after polymer injection; format: in vivo, Sprague-Dawley rats; conditions: rat; for Diastolic volume / MI wall thickness / Systolic volume: 5 weeks post-treatment vs baseline; for Fractional area change (FAC), 5 weeks post-treatment / LV ejection fraction, 5 weeks post-treatment: 100 μL injected into infarcted LV, 5 weeks post-treatment (10 weeks post-MI); for Fractional area change (FAC), 5 weeks post-treatment / LV ejection fraction, 5 weeks post-treatment / Fractional area change (FAC), baseline / LV ejection fraction, baseline: mean ± SD; for Fractional area change (FAC), baseline / LV ejection fraction, baseline: baseline 5 weeks post-MI, before treatment
Description: (§1) All surgical procedures were approved by the Committee for Animal Research of the University of California San Francisco (San Francisco, Calif.). Female Sprague-Dawley rats (225-250 g) were anesthetized with isoflurane. The chest was opened by a median sternotomy, and a single stitch of 7-0 Ticron suture (United States Surgical division of Tyco Healthcare, Norwalk, Conn.) was introduced around the left anterior descending (LAD) coronary artery and tightened to occlude for 30 min. before re-perfusing the vessel (Yu et al, J Thorac Cardiovasc Surg. 2009 Jan. 1, 2009; 137(1):180-7; Christman et a, J Am Coll Cardiol. 2004; 44(3):654-60; Christman et al, Tissue Eng. 2004; 10(3-4):403-9; Huang et al, Tissue Eng. 2005; 11(11-12):1860-6; Sievers et al, Magn Reson Med. 1989; 10:172-81; and Yu et al, Biomaterials. 2009; 30(5):751-6; which are hereby incorporated by reference in their entirety). Cardiac monitoring during the LAD occlusion confirmed the presence of myocardial injury as indicated by ST-elevation. The chest was then closed and the animal was allowed to recover for 5 weeks in order to allow for a LV aneurysm to fully develop. Transthoracic echocardiography was performed 5 weeks post-MI and 5 weeks post-treatment as previously described (Yu et al, J Thorac Cardiovasc Surg. 2009 Jan. 1, 2009; 137(1):180-7; and Litwin et al, Circulation. 1994; 89:345-54; which are hereby incorporated by reference in their entirety).
(§2) Five weeks post-MI and prior to treatment, we verified the LV aneurysmal formation and compromised LV function via echocardiography. The rats were randomized into MC:CMC, MC:CMC-RGD, MC:CMC-HepIII, or phosphate-buffered saline (PBS) control groups (N=8-9 rats/group). Using a closed chest echocardiography-guided injection technique (Springer et al, American Journal of Physiology—Heart and Circulatory Physiology. Sep. 1, 2005; 289(3):H1307-H14; which is hereby incorporated by reference in its entirety), 100 μL of polymer or PBS solution was injected into the infracted LV region of each heart, using a 1 mL syringe system and a 25-gauge needle.

[2] = Rheology studies of 5:1 MC:CMC polymer blends; format: physicochemical; conditions: for Gelling temperature: 5:1 MC:CMC polymer blends, intersection of elastic and viscous modulus plots, mean ± SEM; for Effect of peptide conjugation on viscoelastic properties of the polymer: 5:1 blend, 20-40° C., vs unconjugated polymer
Description: Rheology measurements (Advanced Rheometer AR2000, TA Instruments, New Castle, Del.) were done on MC:CMC, MC:CMC-RGD, and MC:CMC-HepIII co-polymers mixed at a 5:1 ratio. The elastic modulus and viscous modulus were determined for temperatures ranging from 20-40° C., with 1° C. increments. The equilibration time was set at 1 min. and the frequency was set at 1 Hz. The gelling temperature was defined as the point of intersection between the plot for the elastic modulus and the plot for the viscous modulus. Measurements were done in triplicate.

[3] = tested on: Chronic Myocardial Infarction Model; assay: Histology/immunohistochemistry of infarct region (infarct size, angiogenesis, cardiac cells); format: in vivo, Sprague-Dawley rats; conditions: rat, 5 weeks post-treatment; for Density of cardiomyocytes within the infarct region / Infarct size: compared to PBS negative control; for Capillary density in the infarct region: CD31 staining; for Capillary density in the infarct region / Arteriole density within the infarct region: mean ± SD; for Infarct size: Masson's trichrome; for Arteriole density within the infarct region: α-smooth muscle actin staining
Description: as §1, §2
Five weeks post-treatment (10 weeks post-MI), the rats were euthanized and their hearts were harvested, rinsed in cold saline, blotted-dry and fresh frozen in Tissue Tek O.C.T. freezing medium (Sakura Finetek, Torrance, Calif.). The hearts were sectioned into 10 μm slices. Sequential slides spanning the LV region were stained with Masson's trichrome stain and were used for morphological assessment of the infarct size as previously described (Christman et al, J Am Coll Cardiol. 2004; 44(3):654-60). Angiogenesis, arteriogenesis, and the number of cardiac cells within the infarct region were examined by immunohistochemical (IHC) staining with mouse monoclonal anti-CD31 (BD Biosciences Pharmingen, San Diego, Calif.) to visualize capillaries, mouse monoclonal anti-α-smooth muscle actin (Sigma, St. Louis, Mo.) to detect arterioles (Virag et al, Am J Pathol. 2003 Dec. 1, 2003; 163(6):2433-40; which is hereby incorporated by reference in its entirety), and mouse monoclonal anti-rat cardiac α-myosin heavy chain (Panorama Research Institute, Mountain View, Calif.) to detect the cardiac cells. The staining assay was performed using mouse-on-rat HRP-polymer (Biocare Medical, Concord, Calif.) on slides that were sequential to the slides stained with trichrome. Capillaries in the infarct region were identified as a single layer of CD31-positive cells with flattened morphology. Vessel density, cardiac cell density, and nuclei density was calculated on the basis of 5 high magnification fields per section that spanned the infarct and averaged among 5 sections for each sample. Arterioles within or bordering the infarct were identified as staining positive for α-smooth muscle actin and as having a visible lumen with a diameter between 10 and 100 μm (Yu et al, J Thorac Cardiovasc Surg. 2009 Jan. 1, 2009; 137(1):180-7; and Christman et a, J Am Coll Cardiol. 2004; 44(3):654-60). […]

Row | Substance | Diastolic volume [1] | MI wall thickness [1] | Systolic volume [1] | Fractional area change (FAC), 5 weeks post-treatment [1] | LV ejection fraction, 5 weeks post-treatment [1] | Fractional area change (FAC), baseline [1] | LV ejection fraction, baseline [1] | Gelling temperature [2] | Effect of peptide conjugation on viscoelastic properties of the polymer [2] | Density of cardiomyocytes within the infarct region [3] | Capillary density in the infarct region [3] | Infarct size [3] | Arteriole density within the infarct region [3]
1 | MC:CMC-HepIII: Methylcellulose blended 5:1 with carboxymethylcellulose conjugated to HepIII peptide GEFYFDLRLKGDKY (SEQ ID NO: 2) (also: conjugated to carboxymethylcellulose, blended with methylcellulose (attachment site not given here)) | significantly decreased | increase | significantly decreased | 45.6±9.63% | 43.0±6.25% | 36.9±2.60% | 36.9±2.18% | 26.85 ± 0.6256 °C | decreased stiffness and viscosity | higher density | 424±56 capillaries/mm^2 | statistically significant reduction | 28±10 arterioles/mm^2
2 | MC:CMC-RGD: Methylcellulose blended 5:1 with carboxymethylcellulose conjugated to RGD peptide GRGDSPASSPISC (SEQ ID NO: 1) (also: conjugated to carboxymethylcellulose, blended with methylcellulose (attachment site not given here)) | significantly decreased | increase | significantly decreased | 44.0±9.26% | 42.9±8.29% | 36.0±2.44% | 34.2±1.91% | 26.75 ± 0.4954 °C | did not significantly alter | higher density | 472±146 capillaries/mm^2 | statistically significant reduction | 32±12 arterioles/mm^2

From patent publication US9907856B2, “Carboxymethylcellulose-peptide conjugates and methods for using the same” (The Regents of the University of California, priority 2013, dated 2018)
